Assay results as given in patent US8716312B2, “Inhibitors of diacylglycerol acyltransferase” (Merck Sharp & Dohme Corporation, priority 2008, dated 2014).

Biological target: T1, human DGAT1 enzyme (Homo sapiens, UniProt O75907)
T1 sequence (O75907 1-488): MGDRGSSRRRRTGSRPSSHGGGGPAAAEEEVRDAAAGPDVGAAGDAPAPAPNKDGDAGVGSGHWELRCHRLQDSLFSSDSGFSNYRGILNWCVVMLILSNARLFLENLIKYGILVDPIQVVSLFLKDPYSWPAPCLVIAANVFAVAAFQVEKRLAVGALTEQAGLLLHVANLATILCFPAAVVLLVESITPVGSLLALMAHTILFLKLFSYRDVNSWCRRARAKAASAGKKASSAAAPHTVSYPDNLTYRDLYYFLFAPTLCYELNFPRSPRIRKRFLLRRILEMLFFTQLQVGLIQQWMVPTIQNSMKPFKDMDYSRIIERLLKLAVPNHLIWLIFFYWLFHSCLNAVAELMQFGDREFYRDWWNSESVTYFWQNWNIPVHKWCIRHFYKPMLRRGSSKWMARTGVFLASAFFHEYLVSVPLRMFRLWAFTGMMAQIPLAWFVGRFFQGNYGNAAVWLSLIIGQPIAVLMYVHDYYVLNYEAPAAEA
Experiment: in vitro DGAT1 inhibition assay (microsomes, [14C]-palmitoyl-CoA, SPA beads)
Method: The in vitro assay to identify DGAT1 inhibitors uses human DGAT1 enzyme expressed in Sf9 insect cells prepared as microsomes. The reaction is initiated by the addition of the combined substrates 1,2-dioleoyl-sn-glycerol and [^14C]-palmitoyl-Co A and incubated with test compounds and microsomal membranes for 2 hours at room temperature. The assay is stopped by adding 0.5 mg wheat germ agglutinin beads in assay buffer with 1% Brij-35 and 1% 3-cholamidopropyldimethyl-ammonio-1-propane sulfonate. Plates are sealed with TopSeal and incubated for 18 hours to allow the radioactive triglyceride product to come into proximity with the bead. Plates are read on a TopCount instrument.
Percent inhibition was calculated as the percent of (test compound inhibition minus non-specific binding) relative to (total binding minus non-specific binding). IC50 values were determined by curve fitting the data to a Sigmoidal dose-response in GraphPad Prism utilizing the following equation: Y=A+(B−A)/(1+10^((Log IC50−X))), where A and B are the bottom and top of the curve (highest and lowest inhibition), respectively, and X is the logarithm of concentration.

`CCOC(=O)c1nnc2n1CCN(c1ccc(NC(=O)c3oc(N4CCC(c5ccccc5)CC4)nc3C(F)(F)F)cn1)C2` [Compound 216, Ethyl 5,6,7,8-tetrahydro-7-[5-[[[2-(4-phenyl-1-piperidinyl)-4-(trifluoromethyl)-5-oxazolyl]carbonyl]amino]-2-pyridinyl]-1,2,4-triazolo[4,3-a]pyrazine-3-carboxylate] showed an IC50 of 101 to 500 nM.

`CC1CCCN(c2nc(C(F)(F)F)c(C(=O)Nc3ccc(N4CC(NC(=O)Nc5ccccc5F)C4)nc3)o2)C1` (stereo not drawn) [Compound 221, N-(6-(3-(3-(2-fluorophenyl)ureido)azetidin-1-yl)pyridin-3-yl)-2-(3-methylpiperidin-1-yl)-4-(trifluoromethyl)oxazole-5-carboxamide] gave an IC50 of 101 to 500 nM.

`CC1CCCN(c2nc(C(F)(F)F)c(C(=O)Nc3ccc(NC4CN(C(=O)Nc5ccccc5F)C4)nc3)o2)C1` (stereo not drawn) [Compound 223, N-(6-(1-(2-fluorophenylcarbamoyl)azetidin-3-ylamino)pyridin-3-yl)-2-(3-methylpiperidin-1-yl)-4-(trifluoromethyl)oxazole-5-carboxamide] gave an IC50 of 101 to 500 nM.

Work on `O=C(Nc1ccc(N2CCN(C(=O)Cc3ccccc3F)CC2)nc1)c1oc(N2CCC(c3ccccc3)CC2)nc1C(F)(F)F` [Compound 225] yielded an IC50 of 11 to 100 nM.

`O=C(Nc1ccc(N2CCN(C(=O)Cc3ccccc3O)CC2)nc1)c1oc(N2CCC(c3ccccc3)CC2)nc1C(F)(F)F` [Compound 226, N-(6-(4-(2-(2-hydroxyphenyl)acetyl)piperazin-1-yl)pyridin-3-yl)-2-(4-phenylpiperidin-1-yl)-4-(trifluoromethyl)oxazole-5-carboxamide] showed an IC50 of 101 to 500 nM.

With `O=C(Nc1ccc(N2CCN(C(=O)Cc3c(F)cccc3F)CC2)nc1)c1oc(N2CCC(c3ccccc3)CC2)nc1C(F)(F)F` [Compound 229, N-(6-(4-(2-(2,6-difluorophenyl)acetyl)piperazin-1-yl)pyridin-3-yl)-2-(4-phenylpiperidin-1-yl)-4-(trifluoromethyl)oxazole-5-carboxamide] the IC50 was 11 to 100 nM.

`Cc1ccccc1NC(=O)c1ccc2c(c1)Cc1cc(NC(=O)c3oc(N4CCCC(C)C4)nc3C(F)(F)F)ccc1-2` (stereo not drawn) [Compound 235, 2-(3-methylpiperidin-1-yl)-N-(7-(o-tolylcarbamoyl)-9H-fluoren-2-yl)-4-(trifluoromethyl)oxazole-5-carboxamide] was tested, and the IC50 was 101 to 500 nM.

`O=C(Nc1ccc(N2CCN(c3nc4ccccc4o3)CC2)nc1)c1oc(N2CCC(c3ccccc3)CC2)nc1C(F)(F)F` [Compound 236] was tested, and the IC50 was 101 to 500 nM.

For `O=C(Nc1ccc(N2CCN(c3nc4ccccc4[nH]3)CC2)nc1)c1oc(N2CCC(c3ccccc3)CC2)nc1C(F)(F)F` [Compound 237, N-(6-(4-(1H-benzo[d]imidazol-2-yl)piperazin-1-yl)pyridin-3-yl)-2-(4-phenylpiperidin-1-yl)-4-(trifluoromethyl)oxazole-5-carboxamide], the IC50 was 101 to 500 nM.

With `O=C(Nc1ccc(N2CCN(C(=O)C3Cc4ccccc4N3)CC2)nc1)c1oc(N2CCC(c3ccccc3)CC2)nc1C(F)(F)F` (stereo not drawn) [Compound 240, N-(6-(4-(indoline-2-carbonyl)piperazin-1-yl)pyridin-3-yl)-2-(4-phenylpiperidin-1-yl)-4-(trifluoromethyl)oxazole-5-carboxamide] the IC50 was 101 to 500 nM.

Work on `O=C(Nc1ccc(N2CCN(C(=O)C3CCc4ccccc4N3)CC2)nc1)c1oc(N2CCC(c3ccccc3)CC2)nc1C(F)(F)F` (stereo not drawn) [Compound 241, 2-(4-phenylpiperidin-1-yl)-N-(6-(4-(1,2,3,4-tetrahydroquinoline-2-carbonyl)piperazin-1-yl)pyridin-3-yl)-4-(trifluoromethyl)oxazole-5-carboxamide] yielded an IC50 of 101 to 500 nM.

In the case of `O=C(Nc1ccc(N2CCN(C(=O)C3NCCc4ccccc43)CC2)nc1)c1oc(N2CCC(c3ccccc3)CC2)nc1C(F)(F)F` (stereo not drawn) [Compound 242, 2-(4-phenylpiperidin-1-yl)-N-(6-(4-(1,2,3,4-tetrahydroisoquinoline-1-carbonyl)piperazin-1-yl)pyridin-3-yl)-4-(trifluoromethyl)oxazole-5-carboxamide], the IC50 is reported as 101 to 500 nM.
